Experimental data from patent US7582645B2, “Pyrimidine derivatives for treatment of hyperproliferative disorders” (Bayer Pharmaceuticals Corporation, priority 2003, dated 2009).

Tested on: HCT116 cells
Experiment: HCT116 cytotoxic activity assay (Alamar Blue, 72 h)
Type: cell-based
Conditions: Homo sapiens, HCT-116, 72 h compound exposure
Method: Representative compounds of this invention were tested for cytotoxicity using the above-described assay procedure with the following results: […]

[1] = greater than 500 nM but less than or equal to 2 μM

**Q.** How did the IC50 (less than or equal to 500 nM) turn out when COc1ccc(-c2cc(Nc3ccc(Oc4ccnc(C#N)c4)cc3)nc(N)n2)cn1 [Example 223, 4-(4-{[2-amino-6-(6-methoxypyridin-3-yl)pyrimidin-4-yl]amino}phenoxy) pyridine-2-carbonitrile] was run?
**A.** ≤ 500 nM

**Q.** With COc1ccc(-c2cc(Nc3ccc(Oc4ccnc(C#N)c4)cc3)nc(N)n2)cc1OC [Example 224, 4-(4-{[2-amino-6-(3,4-dimethoxyphenyl)pyrimidin-4-yl]amino}phenoxy)pyridine-2-carbonitrile] as the compound, how does the IC50 (greater than 2 μM) read?
**A.** > 2000 nM

**Q.** For COc1ccc(-c2cc(Nc3ccc(Oc4ccnc(C#N)c4)cc3)nc(N)n2)cc1 [Example 225, 4-(4-{[2-amino-6-(4-methoxyphenyl)pyrimidin-4-yl]amino}phenoxy) pyridine-2-carbonitrile 4-(4-{[6-amino-2-(4-methoxyphenyl)pyrimidin-4-yl]amino}phenoxy) pyridine-2-carbonitrile], which IC50 (greater than 2 μM) is on record?
**A.** > 2000 nM

**Q.** For N#Cc1cc(Oc2ccc(Nc3cc(-c4cccc(O)c4)nc(N)n3)cc2)ccn1 [Example 226], which IC50 [1] is on record?
**A.** 500 to 2000 nM

**Q.** How did the IC50 (less than or equal to 500 nM) turn out when N#Cc1cc(Oc2ccc(Nc3cc(-c4ccc(O)cc4)nc(N)n3)cc2)ccn1 [Example 227, 4-(4-{[2-amino-6-(4-hydroxyphenyl)pyrimidin-4-yl]amino}phenoxy) pyridine-2-carbonitrile 4-(4-{[6-amino-2-(4-hydroxyphenyl)pyrimidin-4-yl]amino}phenoxy) pyridine-2-carbonitrile] was run?
**A.** ≤ 500 nM

**Q.** With N#Cc1cc(Oc2ccc(Nc3cc(-c4ccoc4)nc(N)n3)cc2)ccn1 [Example 228, 4-(4-{[2-amino-6-(3-furyl)pyrimidin-4-yl]amino}phenoxy)pyridine-2-carbonitrile 4-(4-{[6-amino-2-(3-furyl)pyrimidin-4-yl]amino}phenoxy) pyridine-2-carbonitrile] as the compound, how does the IC50 (less than or equal to 500 nM) read?
**A.** ≤ 500 nM

**Q.** With N#Cc1cc(Oc2ccc(Nc3cc(-c4ccc(N)cc4)nc(N)n3)cc2)ccn1 [Example 229, 4-(4-{[2-amino-6-(4-aminophenyl)pyrimidin-4-yl]amino}phenoxy) pyridine-2-carbonitrile 4-(4-{[6-amino-2-(4-aminophenyl)pyrimidin-4-yl]amino}phenoxy)pyridine-2-carbonitrile] as the compound, how does the IC50 (less than or equal to 500 nM) read?
**A.** ≤ 500 nM

**Q.** How did the IC50 [1] turn out when COc1ccc(-c2cc(Nc3ccc(Oc4ccnc(C(N)=O)c4)cc3)nc(N)n2)cn1 [Example 230, 4-(4-{[2-amino-6-(6-methoxypyridin-3-yl)pyrimidin-4-yl]amino}phenoxy) pyridine-2-carboxamide] was run?
**A.** 500 to 2000 nM

**Q.** CSc1ccc(-c2cc(Nc3ccc(Oc4ccnc(C#N)c4)cc3)nc(N)n2)cc1 [Example 231, 4-[4-({2-amino-6-[4-(methylthio)phenyl]pyrimidin-4-yl}amino)phenoxy]pyridine-2-carbonitrile] was tested. Which IC50 [1] did it give?
**A.** 500 to 2000 nM

**Q.** With CN(C)c1ccc(-c2cc(Nc3ccc(Oc4ccnc(C#N)c4)cc3)nc(N)n2)cc1 [Example 232, 4-[4-({2-amino-6-[4-(dimethylamino)phenyl]pyrimidin-4-yl}amino)phenoxy]pyridine-2-carbonitrile] as the compound, how does the IC50 [1] read?
**A.** 500 to 2000 nM

**Q.** How did the IC50 (less than or equal to 500 nM) turn out when COc1ccc(OC)c(-c2cc(Nc3ccc(Oc4ccnc(C#N)c4)cc3)nc(N)n2)c1 [Example 233, 4-(4-{[2-amino-6-(2,5-dimethoxyphenyl)pyrimidin-4-yl]amino}phenoxy)pyridine-2-carbonitrile] was run?
**A.** ≤ 500 nM

**Q.** COc1cccc(-c2cc(Nc3ccc(Oc4ccnc(C#N)c4)cc3)nc(N)n2)c1 [Example 234, 4-(4-{[2-amino-6-(3-methoxyphenyl)pyrimidin-4-yl]amino}phenoxy) pyridine-2-carbonitrile] was tested. Which IC50 (less than or equal to 500 nM) did it give?
**A.** ≤ 500 nM

**Q.** Which IC50 [1] does the source give for N#CCc1ccc(-c2cc(Nc3ccc(Oc4ccnc(C#N)c4)cc3)nc(N)n2)cc1 [Example 235, 4-[4-({2-amino-6-(4-(cyanomethyl)phenyl]pyrimidin-4-yl}amino)phenoxy]pyridine-2-carbonitrile] here?
**A.** 500 to 2000 nM

**Q.** For N#Cc1cc(Oc2ccc(Nc3cc(-c4cccnc4)nc(N)n3)cc2)ccn1 [Example 236, 4-{4-[(2-amino-6-pyridin-3-ylpyrimidin-4-yl)amino]phenoxy} pyridine-2-carbonitrile], which IC50 (greater than 2 μM) is on record?
**A.** > 2000 nM
